Results from ChEMBL document CHEMBL3596124, “New anti-trypanosomal active tetracyclic iridoid isolated from Morinda lucida Benth” (Bioorg Med Chem Lett, 2015).

How the values were obtained:
LoVo = assay: Cytotoxicity against human LoVo cells assessed as reduction in cell viability incubated for 48 hrs by MTT assay; type: functional, cell-based
[1] = Cytotoxicity against human HF19 cells assessed as reduction in cell viability incubated for 48 hrs by MTT assay; type: cell-based; details: HF19, 48 h
[2] = Selectivity index, ratio of IC50 for human HCT15 cells to IC50 for Trypanosoma brucei brucei GUTat 3.1 bloodstream forms; type: functional, HCT-15
[3] = Cytotoxicity against human KATO III cells assessed as reduction in cell viability incubated for 48 hrs by MTT assay; type: functional, cell-based
[4] = Selectivity index, ratio of IC50 for human HF19 cells to IC50 for Trypanosoma brucei brucei GUTat 3.1 bloodstream forms; type: toxicity, cell-based; details: read-out: Ratio IC50
HCT-15 = assay: Cytotoxicity against human HCT15 cells assessed as reduction in cell viability incubated for 48 hrs by MTT assay; type: functional, cell-based; details: HCT-15, 48 h
[5] = Selectivity index, ratio of IC50 for human THP1 cells to IC50 for Trypanosoma brucei brucei GUTat 3.1 bloodstream forms; type: functional, THP-1
[6] = Selectivity index, ratio of IC50 for human NB1RGB cells to IC50 for Trypanosoma brucei brucei GUTat 3.1 bloodstream forms; type: toxicity, cell-based; details: read-out: Ratio IC50
[7] = Selectivity index, ratio of IC50 for human KATO III cells to IC50 for Trypanosoma brucei brucei GUTat 3.1 bloodstream forms; type: functional, KATO III cell
[8] = tested on: Trypanosoma brucei brucei; assay: Anti-trypanosomal activity against Trypanosoma brucei brucei GUTat 3.1 bloodstream forms assessed as reduction in parasitemia incubated for 48 hrs by alamar blue assay; type: functional, organism-based; details: GUTat 3.1, 48 h
[9] = Cytotoxicity against human NB1RGB cells assessed as reduction in cell viability incubated for 48 hrs by MTT assay; type: cell-based
[10] = Selectivity index, ratio of IC50 for human Caco2 cells to IC50 for Trypanosoma brucei brucei GUTat 3.1 bloodstream forms; type: functional, Caco-2
[11] = Selectivity index, ratio of IC50 for human HL60 cells to IC50 for Trypanosoma brucei brucei GUTat 3.1 bloodstream forms; type: functional, HL-60
[12] = Selectivity index, ratio of IC50 for human Jurkat cells to IC50 for Trypanosoma brucei brucei GUTat 3.1 bloodstream forms; type: functional
Caco-2 = assay: Cytotoxicity against human Caco2 cells assessed as reduction in cell viability incubated for 48 hrs by MTT assay; type: functional, cell-based; details: Caco-2, 48 h
[13] = Selectivity index, ratio of IC50 for human LoVo cells to IC50 for Trypanosoma brucei brucei GUTat 3.1 bloodstream forms; type: functional
[14] = Selectivity index, ratio of IC50 for human U937 cells to IC50 for Trypanosoma brucei brucei GUTat 3.1 bloodstream forms; type: functional, U-937
U-937 = assay: Cytotoxicity against human U937 cells assessed as reduction in cell viability incubated for 48 hrs by MTT assay; type: functional, cell-based; details: U-937, 48 h
THP-1 = assay: Cytotoxicity against human THP1 cells assessed as reduction in cell viability incubated for 48 hrs by MTT assay; type: functional, cell-based; details: THP-1, 48 h
Jurkat = assay: Cytotoxicity against human Jurkat cells assessed as reduction in cell viability incubated for 48 hrs by MTT assay; type: functional, cell-based
HL-60 = assay: Cytotoxicity against human HL60 cells assessed as reduction in cell viability incubated for 48 hrs by MTT assay; type: functional, cell-based; details: HL-60, 48 h

Q: Which IC50 (LoVo) does the source give for `COC(=O)C1=CO[C@@H]2O[C@H]3/C(=C\c4ccc(O)c(OC)c4)C(=O)O[C@]34C=C[C@H]1[C@H]24` here?
A: The IC50 was 0.11 µM.

Q: What about the IC50 [1] of the same molecule?
A: The IC50 was 12.1 µM.

Q: And the “Ratio IC50” value [2]?
A: The value was 12.63.

Q: And the IC50 [3]?
A: The IC50 was 0.21 µM.

Q: And the selectivity ratio [4]?
A: The selectivity ratio was 9.54.

Q: And the IC50 (HCT-15)?
A: Its IC50 is 16 µM.

Q: What about the “Ratio IC50” value [5] of the same molecule?
A: Its value is 5.5.

Q: And the selectivity ratio [6]?
A: Its selectivity ratio is 4.73.

Q: What about the “Ratio IC50” value [7] of the same molecule?
A: The value was 0.17.

Q: What about the IC50 [8] of the same molecule?
A: Its IC50 is 1.27 µM.

Q: And the IC50 [9]?
A: The IC50 was 6.01 µM.

Q: What about the “Ratio IC50” value [10] of the same molecule?
A: The value was 1.06.

Q: And the “Ratio IC50” value [11]?
A: Its value is 3.05.

Q: What about the “Ratio IC50” value [12] of the same molecule?
A: Its value is 1.93.

Q: And the IC50 (Caco-2)?
A: Its IC50 is 1.35 µM.

Q: And the “Ratio IC50” value [13]?
A: Its value is 0.09.

Q: And the “Ratio IC50” value [14]?
A: Its value is 3.21.

Q: And the IC50 (U-937)?
A: The IC50 was 4.08 µM.

Q: What about the IC50 (THP-1) of the same molecule?
A: Its IC50 is 6.98 µM.

Q: What about the IC50 (Jurkat) of the same molecule?
A: Its IC50 is 2.45 µM.

Q: What about the IC50 (HL-60) of the same molecule?
A: Its IC50 is 3.87 µM.
